Here are results for twelve compounds from US11203571B2, “Sulfonamides as modulators of sodium channels” (VERTEX PHARMACEUTICALS INCORPORATED, priority 2013, dated 2021).

Data set [1] is described as follows: Human liver microsome assay. The data set is classed as in vitro ADME. The note with it: 1 uM substrate, 0.5 mg/mL liver microsome, 2 mM NADPH, 37° C., referenced against time zero control. The method, boiled down: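 Pooled human liver microsomes (0.5 mg/mL) with 1 uM substrate (0.2% DMSO), 2 mM NADPH, 0.1 M phosphate, shaken 30 min at 37° C. Quenched with cold acetonitrile; parent quantified by LC/MS/MS. Value is % substrate remaining at 30 min versus a time-zero control without NADPH.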
(Microsomes from liver hold many membrane-bound enzymes, among them those of drug oxidation.)

For another data set, the target named is human Nav1.8 (Homo sapiens (Human), UniProt Q9Y5Y9). The experiment in a line: E-VIPR optical membrane potential assay with electrical stimulation. The data set is classed as cell-based. The note with it: HEK cells expressing human Nav1.8. The method, boiled down: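 HEK cells expressing human Nav1.8 were loaded with CC2-DMPE (8 μM) and DiSBAC6(3) (2.5 μM), then given compound for 20-35 min at room temperature (0.625% DMSO). Cells received a 10-s current-controlled electrical stimulus. Response was the stimulated/baseline 460/580 nm emission ratio (Rf/Ri), with tetracaine (125 μM) as positive control.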
human Nav1.8, sequence (Q9Y5Y9 whole entry): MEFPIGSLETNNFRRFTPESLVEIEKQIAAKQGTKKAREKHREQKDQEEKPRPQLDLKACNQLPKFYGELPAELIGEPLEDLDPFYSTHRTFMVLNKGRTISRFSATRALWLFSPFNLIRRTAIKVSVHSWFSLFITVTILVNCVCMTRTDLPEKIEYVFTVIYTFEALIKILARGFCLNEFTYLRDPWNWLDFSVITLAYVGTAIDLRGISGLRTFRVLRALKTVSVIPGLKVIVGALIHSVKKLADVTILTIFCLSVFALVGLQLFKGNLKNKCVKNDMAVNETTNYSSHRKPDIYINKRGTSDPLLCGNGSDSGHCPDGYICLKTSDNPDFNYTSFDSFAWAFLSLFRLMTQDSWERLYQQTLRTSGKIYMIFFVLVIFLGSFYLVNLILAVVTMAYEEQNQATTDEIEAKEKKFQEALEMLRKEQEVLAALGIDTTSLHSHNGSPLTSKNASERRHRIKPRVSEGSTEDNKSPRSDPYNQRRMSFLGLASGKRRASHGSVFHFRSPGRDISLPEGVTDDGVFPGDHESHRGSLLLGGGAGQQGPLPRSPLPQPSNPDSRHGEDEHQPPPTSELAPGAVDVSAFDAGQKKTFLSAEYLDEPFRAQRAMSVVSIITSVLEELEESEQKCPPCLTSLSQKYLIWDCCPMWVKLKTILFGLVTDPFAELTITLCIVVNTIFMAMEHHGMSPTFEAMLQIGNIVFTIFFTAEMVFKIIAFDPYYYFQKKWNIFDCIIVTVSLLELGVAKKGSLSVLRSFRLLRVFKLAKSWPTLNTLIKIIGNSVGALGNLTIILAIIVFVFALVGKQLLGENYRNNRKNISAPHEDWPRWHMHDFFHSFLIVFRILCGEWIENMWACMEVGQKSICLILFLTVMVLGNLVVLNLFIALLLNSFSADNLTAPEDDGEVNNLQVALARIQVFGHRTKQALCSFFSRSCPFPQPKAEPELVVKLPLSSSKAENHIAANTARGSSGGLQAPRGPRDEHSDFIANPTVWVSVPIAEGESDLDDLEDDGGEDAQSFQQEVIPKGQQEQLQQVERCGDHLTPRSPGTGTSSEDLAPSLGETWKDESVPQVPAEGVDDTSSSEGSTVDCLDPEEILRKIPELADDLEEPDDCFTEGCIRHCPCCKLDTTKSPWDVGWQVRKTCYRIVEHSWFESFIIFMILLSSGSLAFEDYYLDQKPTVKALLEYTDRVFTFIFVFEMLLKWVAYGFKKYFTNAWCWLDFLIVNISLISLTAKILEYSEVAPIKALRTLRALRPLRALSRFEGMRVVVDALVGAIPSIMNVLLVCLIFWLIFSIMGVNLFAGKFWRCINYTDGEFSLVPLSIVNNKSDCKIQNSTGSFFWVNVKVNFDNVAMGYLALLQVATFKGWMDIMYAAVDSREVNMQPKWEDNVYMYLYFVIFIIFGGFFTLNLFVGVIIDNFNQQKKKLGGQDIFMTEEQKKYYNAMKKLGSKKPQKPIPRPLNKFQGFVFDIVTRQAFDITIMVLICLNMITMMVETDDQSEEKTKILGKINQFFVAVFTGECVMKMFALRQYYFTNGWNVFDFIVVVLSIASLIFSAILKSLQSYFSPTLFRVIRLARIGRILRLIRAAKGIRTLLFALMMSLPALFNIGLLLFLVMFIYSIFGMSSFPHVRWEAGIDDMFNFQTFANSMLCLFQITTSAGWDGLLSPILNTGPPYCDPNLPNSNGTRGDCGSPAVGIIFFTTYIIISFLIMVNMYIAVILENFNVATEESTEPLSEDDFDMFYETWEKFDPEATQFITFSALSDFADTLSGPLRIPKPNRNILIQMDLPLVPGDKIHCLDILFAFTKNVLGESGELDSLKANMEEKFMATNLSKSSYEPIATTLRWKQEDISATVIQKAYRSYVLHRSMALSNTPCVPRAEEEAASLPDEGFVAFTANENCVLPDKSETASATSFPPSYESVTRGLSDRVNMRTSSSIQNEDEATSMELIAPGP

For `COc1ccc(Oc2cc(OC(F)(F)F)ccc2C(=O)Nc2cccc(S(N)(=O)=O)c2)c(Cl)c1` [Compound 62, 2-(2-chloro-4-methoxyphenoxy)-N-(3-sulfamoylphenyl)-4-(trifluoromethoxy)benzamide], in data set [1], the “HLM: percent unchanged after 30 min” value was 81%. It took 0.016 µM to reach half-maximal inhibition against human Nav1.8 (IC50).
As for `NS(=O)(=O)c1cccc(NC(=O)c2ccc(OC(F)(F)F)cc2Oc2ccccc2Cl)c1` [Compound 63, 2-(2-chlorophenoxy)-N-(3-sulfamoylphenyl)-4-(trifluoromethoxy)benzamide], the “HLM: percent unchanged after 30 min” value in data set [1] was 92%. For the same compound, the IC50 (commonly the concentration needed to halve the response being measured) against human Nav1.8 turned out to be 0.027 µM.
As to `NS(=O)(=O)c1cccc(NC(=O)c2ccc(OC(F)(F)F)cc2Oc2ccccc2OC(F)F)c1` [Compound 64, 2-(2-(difluoromethoxy)phenoxy)-N-(3-sulfamoylphenyl)-4-(trifluoromethoxy)benzamide], in data set [1], the “HLM: percent unchanged after 30 min” value turned out to be 96%. The IC50 on human Nav1.8 amounted to 0.022 µM.
For `COc1cc(Cl)ccc1Oc1cc(OC(F)(F)F)ccc1C(=O)Nc1cccc(S(N)(=O)=O)c1` [Compound 65, 2-(4-chloro-2-methoxyphenoxy)-N-(3-sulfamoylphenyl)-4-(trifluoromethoxy)benzamide], the “HLM: percent unchanged after 30 min” value in data set [1] turned out to be 101%. At human Nav1.8, it took 0.022 µM to reach half-maximal inhibition (IC50).
Consider `COc1c(Cl)cccc1Oc1cc(OC(F)(F)F)ccc1C(=O)Nc1cccc(S(N)(=O)=O)c1` [Compound 66, 2-(3-chloro-2-methoxyphenoxy)-N-(3-sulfamoylphenyl)-4-(trifluoromethoxy)benzamide], for which, in data set [1], the “HLM: percent unchanged after 30 min” value came out at 89%. The same compound had an IC50 on human Nav1.8 of 0.007 µM.
On to `COc1ccc(Oc2cc(C(F)(F)F)ccc2C(=O)Nc2cccc(S(N)(=O)=O)c2)cc1Cl` [Compound 67, 2-(3-chloro-4-methoxyphenoxy)-N-(3-sulfamoylphenyl)-4-(trifluoromethyl)benzamide], for which the “HLM: percent unchanged after 30 min” value in data set [1] came out at 91%. Further, the IC50 against human Nav1.8 stood at 0.026 µM.
Take `COc1c(Cl)cccc1Oc1cc(C(F)(F)F)ccc1C(=O)Nc1cccc(S(N)(=O)=O)c1` [Compound 68, 2-(3-chloro-2-methoxyphenoxy)-N-(3-sulfamoylphenyl)-4-(trifluoromethyl)benzamide]: the “HLM: percent unchanged after 30 min” value in data set [1] is 80%. Further, the IC50 against human Nav1.8 came to 0.009 µM.
With `NS(=O)(=O)c1cccc(NC(=O)c2ccc(C(F)(F)C(F)(F)F)cc2Oc2ccc(F)cc2)c1` [Compound 69, 2-(4-fluorophenoxy)-4-(perfluoroethyl)-N-(3-sulfamoylphenyl)benzamide], in data set [1], the “HLM: percent unchanged after 30 min” value is reported as 110%. On human Nav1.8, the IC50 came out at 0.026 µM.
In the case of `COc1cc(F)ccc1Oc1cc(C(F)(F)C(F)(F)F)ccc1C(=O)Nc1cccc(S(N)(=O)=O)c1` [Compound 70, 2-(4-fluoro-2-methoxyphenoxy)-4-(perfluoroethyl)-N-(3-sulfamoylphenyl)benzamide], in data set [1], the “HLM: percent unchanged after 30 min” value came to 87%. Further, at human Nav1.8, 0.013 µM corresponded to half-maximal inhibition (IC50).
In the case of `COc1cc(Cl)ccc1Oc1cc(C(F)(F)C(F)(F)F)ccc1C(=O)Nc1cccc(S(N)(=O)=O)c1` [Compound 71, 2-(4-chloro-2-methoxyphenoxy)-4-(perfluoroethyl)-N-(3-sulfamoylphenyl)benzamide], in data set [1], the “HLM: percent unchanged after 30 min” value is recorded as 81%. Moreover, the IC50 on human Nav1.8 came out at 0.028 µM.
For the compound `COc1ccc(Oc2cc(C(F)(F)C(F)(F)F)ccc2C(=O)Nc2cccc(S(N)(=O)=O)c2)c(Cl)c1` [Compound 72, 2-(2-chloro-4-methoxyphenoxy)-4-(perfluoroethyl)-N-(3-sulfamoylphenyl)benzamide], the “HLM: percent unchanged after 30 min” value in data set [1] was 67%. The compound also returned an IC50 on human Nav1.8 of 0.02 µM.
Take `NS(=O)(=O)c1cccc(NC(=O)c2ccc(C(F)(F)F)cc2Oc2ccccc2Cl)c1` [Compound 73, 2-(2-chlorophenoxy)-N-(3-sulfamoylphenyl)-4-(trifluoromethyl)benzamide]: the “HLM: percent unchanged after 30 min” value in data set [1] amounted to 95%. Also, the IC50 against human Nav1.8 was found to be 0.026 µM.
